Measured values: paper PMC10762177, “Novel betulin derivatives as multidrug reversal agents targeting P-glycoprotein” (Scientific Reports, 2024)
Entries after “also recorded” stand apart in the source; their conditions may differ.

Experiments:
[1] = system: K562/Dox cells; experiment: MTT colorimetric assay, cytotoxicity on resistant K562/Dox; type: cell-based; settings: MTT, K562/Dox; for IC50: Homo sapiens, K562, 48 h, 48 h, read-out: IC50 K562/Dox; for toxicity: 50 μM
Experimental: This colorimetric technique is based on the ability of viable cells to capture MTT and reduce it through the mitochondrial enzyme succinic dehydrogenase to its insoluble form, formazan crystals. The target compounds dissolved in DMSO (0.5% v/v as final concentration which was non-toxic to cells) at a maximum concentration of 50 µM were exposed to 5 × 10^4 cells distributed in a 96-well plate and incubated for 48 h. […] After this time, the plate was centrifuged at 2000 rpm for 10 min, and 100 µL of DMSO was added to dissolve the formazan crystals formed. Absorbance (Abs) was read at a wavelength of 595 nm in an iMark microplate reader (Bio-Rad, USA). The percentages of cytotoxicity were determined as compared to DMSO treated control cells, which were considered 100% viable as showing the same level of growth as the untreated cells.

[2] = system: K562 cells; experiment: MTT colorimetric assay, cytotoxicity on sensitive K562; type: cell-based; settings: for IC50: MTT, 48 h, K562; for toxicity: 50 μM, K562, MTT
Experimental: This colorimetric technique is based on the ability of viable cells to capture MTT and reduce it through the mitochondrial enzyme succinic dehydrogenase to its insoluble form, formazan crystals. […] After this time, the plate was centrifuged at 2000 rpm for 10 min, and 100 µL of DMSO was added to dissolve the formazan crystals formed. Absorbance (Abs) was read at a wavelength of 595 nm in an iMark microplate reader (Bio-Rad, USA).

[3] = biological target: T1, P-gp (Homo sapiens, UniProt P08183); experiment: Rhodamine 123 intracellular accumulation assay in K562/Dox (flow cytometry); settings: for FAR (fluorescence activity ratio): Rho123, K562/Dox
T1 sequence (P08183 whole entry): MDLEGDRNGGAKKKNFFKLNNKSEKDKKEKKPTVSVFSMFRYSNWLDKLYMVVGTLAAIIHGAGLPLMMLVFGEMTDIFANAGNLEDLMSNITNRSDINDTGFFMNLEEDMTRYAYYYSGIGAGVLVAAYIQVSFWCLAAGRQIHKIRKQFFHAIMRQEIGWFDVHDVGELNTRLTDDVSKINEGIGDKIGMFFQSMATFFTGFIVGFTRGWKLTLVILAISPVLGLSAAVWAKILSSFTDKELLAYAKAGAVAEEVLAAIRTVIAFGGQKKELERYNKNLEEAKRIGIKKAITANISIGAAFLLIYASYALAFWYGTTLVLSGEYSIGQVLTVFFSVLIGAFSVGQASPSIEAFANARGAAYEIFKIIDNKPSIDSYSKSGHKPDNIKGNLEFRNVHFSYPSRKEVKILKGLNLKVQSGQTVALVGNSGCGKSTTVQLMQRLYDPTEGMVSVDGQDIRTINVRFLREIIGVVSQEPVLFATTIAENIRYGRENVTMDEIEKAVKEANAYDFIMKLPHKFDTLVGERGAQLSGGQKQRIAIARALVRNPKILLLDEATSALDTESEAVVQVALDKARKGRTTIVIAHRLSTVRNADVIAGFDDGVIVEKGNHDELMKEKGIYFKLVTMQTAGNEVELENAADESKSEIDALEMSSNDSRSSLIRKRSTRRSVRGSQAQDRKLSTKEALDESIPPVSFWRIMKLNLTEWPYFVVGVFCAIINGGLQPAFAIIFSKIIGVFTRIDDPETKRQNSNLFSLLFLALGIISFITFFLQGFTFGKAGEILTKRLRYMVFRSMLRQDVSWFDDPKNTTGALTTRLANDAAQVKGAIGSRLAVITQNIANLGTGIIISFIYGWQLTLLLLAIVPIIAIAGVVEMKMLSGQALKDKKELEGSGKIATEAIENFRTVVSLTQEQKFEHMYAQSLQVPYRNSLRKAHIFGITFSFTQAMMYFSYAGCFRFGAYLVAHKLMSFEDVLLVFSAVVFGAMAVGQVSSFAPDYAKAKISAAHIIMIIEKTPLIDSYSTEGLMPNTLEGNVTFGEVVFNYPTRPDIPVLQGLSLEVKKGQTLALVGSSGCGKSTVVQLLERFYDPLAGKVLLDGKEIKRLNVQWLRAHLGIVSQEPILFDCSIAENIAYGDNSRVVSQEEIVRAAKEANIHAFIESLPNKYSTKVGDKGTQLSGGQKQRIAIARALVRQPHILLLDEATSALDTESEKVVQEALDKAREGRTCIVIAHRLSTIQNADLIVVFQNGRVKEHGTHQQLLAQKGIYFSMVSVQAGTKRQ

[4] = system: K562/Dox cells; experiment: Doxorubicin resistance reversal assay in K562/Dox (MTT); settings: for FR (fold reversal): Dox co-administered
Experimental: (§1) Simultaneously, viability controls were run with no addition of the dissolution solvent. The cells were incubated at 37 °C at 5% CO2 for 48 h and the same protocol described above was followed. The potency of the compounds was established by means of the fold reversal (FR) values calculated from dividing the IC50 of Dox alone by the IC50 of Dox with different concentrations of each compound tested.

[5] = system: K562 cells; experiment: Doxorubicin resistance reversal assay in K562 (MTT); type: cell-based; settings: K562, 1.56 µM
Experimental: as §1

[6] = Cytotoxicity on peripheral blood mononuclear cells (MTT); type: cell-based, human; settings: human
Experimental: . PBMC were isolated by the Ficoll-Hypaque density gradient centrifugation technique of fresh heparinized blood from healthy human volunteers. The protocol was previously approved by the Catholic University of Córdoba Research Ethics Board. Signed informed consents were obtained from donors. All methods were performed in accordance with the relevant guidelines and regulations. Briefly, 1 × 10^5 cells/well in a 96-well plate were incubated with 10 µg/mL PHA, in the presence of the corresponding concentrations of the compounds or 0.5% v/v DMSO (negative control) for 48 h, and processed as above described for the MTT method. The percentages of inhibition on cell proliferation were determined by comparison with negative controls, and the corresponding IC50 values were calculated from the best fit of the concentration-dependent inhibition curves in GraphPad Prism 7.

[7] = system: erythrocytes; experiment: Erythrocyte hemolysis assay; type: cell-based, human; settings: maximum tested concentration of 50 µM, 1 h
Experimental: For the erythrocyte hemolysis assay, the red blood cell suspension was obtained from fresh heparinized blood collected from healthy human volunteer donors, without receiving any treatment. The blood sample was centrifuged at 2,500 rpm for 10 min at 4 °C. The supernatant was discarded, and the red blood cell pellet was subjected to two consecutive washes with sterile PBS, using the same centrifugation conditions. An aliquot of the pellet obtained was resuspended in PBS (3% v/v). The compounds were incubated at decreasing concentrations starting from 50 µM with the suspension at 37 °C for 1 h. Controls with 1% DMSO and no solvent were included.

[8] = system: K562 cells; experiment: Doxorubicin intracellular accumulation assay in K562 (flow cytometry); settings: K562, versus negative control
[9] = system: K562 cells; experiment: Rhodamine 123 intracellular accumulation assay in K562 (flow cytometry); settings: K562, maximum concentration assayed
[10] = biological target: T1, P-gp; experiment: Doxorubicin intracellular accumulation assay in K562/Dox (flow cytometry)
[11] = biological target: T1, P-gp; set-up: MDR phenotype mainly characterized by the overexpression of ABCB1/P-gp; endogenous in cells; host or cells: K562/Dox (formerly Lucena 1), drug-selected and kept under 60 nM Dox; parental K562 used as the low-P-gp control; settings: cited from earlier work

Row | SMILES | IC50 [1] | IC50 ([2]; Homo sapiens, K562, 48 h) | FAR (fluorescence activity ratio) ([3]; 0.78 µM) | FAR (fluorescence activity ratio) ([3]; 1.56 µM) | FAR (fluorescence activity ratio) ([3]; 3.12 µM) | FAR (fluorescence activity ratio) ([3]; 6.25 µM) | FAR (fluorescence activity ratio) ([3]; 12.50 µM) | FAR (fluorescence activity ratio) ([3]; 25 µM) | FAR (fluorescence activity ratio) ([3]; 50 µM) | MEC (minimum effective concentration) ([3]; Rho123 accumulation, K562/Dox) | toxicity [1] | toxicity [2] | also measured
1 | C=C(C)[C@@H]1CC[C@]2(COC(=O)NCCc3ccc(OC)c(OC)c3)CC[C@]3(C)[C@H](CC[C@@H]4[C@@]5(C)CC[C@H](O)C(C)(C)[C@@H]5CC[C@]43C)[C@@H]12 [Compound 6f] | > 50 µM | > 50 µM | 1.02 ± 0.02 | 1.13 ± 0.04 | 1.25 ± 0.02 | 1.45 ± 0.16 | 1.73 ± 0.18 | 1.95 ± 0.25 | 2.27 ± 0.31 | 1.56 µM | – | – | –
2 | C=C(C)[C@@H]1CC[C@]2(COC(=O)N3CCNCC3)CC[C@]3(C)[C@H](CC[C@@H]4[C@@]5(C)CC[C@H](O)C(C)(C)[C@@H]5CC[C@]43C)[C@@H]12 [Compound 6h] | 12.5 ± 0.5 µM | 4.6 ± 0.24 µM | – | – | – | 1.06 ± 0.08 | – | – | – | – | more than 55% | more than 55% | Rho123 accumulation / anti-P-gp activity ([3]; K562/Dox, highest concentrations tested (50 or 6.25 µM)): did not induce statistically significant Rho123 accumulation
3 | C=C(C)[C@@H]1CC[C@]2(COC(=O)N3CCN(C)CC3)CC[C@]3(C)[C@H](CC[C@@H]4[C@@]5(C)CC[C@H](O)C(C)(C)[C@@H]5CC[C@]43C)[C@@H]12 [Compound 6i] | 33.91 ± 0.09 µM | 19.1 µM | 1.30 ± 0.06 | 1.41 ± 0.14 | 1.71 ± 0.06 | 2.04 ± 0.05 | – | – | – | 0.39 µM | more than 55% | more than 55% | IC50 [2]: 19.1 ± 0.87 µM; potency for restoring the cytotoxicity of Dox relative to compound 1 (times) [4]: nearly twice; MEC, Dox resistance reversal ([4]; K562/Dox): 0.19 µM; FR (fold reversal) ([4]; K562/Dox, 0.19 µM): 1.39 ± 0.07; FR (fold reversal) ([4]; K562/Dox, 0.78 µM): 1.63 ± 0.06; FR (fold reversal) ([4]; K562/Dox, 1.56 µM): 2.69 ± 0.39; reversal effect on parental K562 [5]: did not show a reversal effect; IC50 at 48 h [6]: 26.4 ± 2.88 µM; viability at 48 h, 50 µM [6]: 64%; erythrocyte hemolysis [7]: devoid of toxic effects; also recorded: Neither compound induced erythrocyte hemolysis; Dox accumulation in K562 [8]: did not increase Dox accumulation; Rho123 accumulation in K562 [9]: did not increase Rho123 accumulation; MEC, Dox accumulation [10]: 0.098 µM; FAR, Dox accumulation ([10]; 25 µM): 1.27 ± 0.03; FAR (fluorescence activity ratio) ([3]; 0.19 µM): 1.08 ± 0.05; dose-dependent behavior, b ([3]; Rho123 accumulation, K562/Dox): 40.14
4 | C=C(C)[C@@H]1CC[C@]2(COC(=O)NCCN3CCN(C(=O)OC(C)(C)C)CC3)CC[C@]3(C)[C@H](CC[C@@H]4[C@@]5(C)CC[C@H](O)C(C)(C)[C@@H]5CC[C@]43C)[C@@H]12 [Compound 6j] | > 50 µM | > 50 µM | – | – | – | 1.08 ± 0.04 | 1.25 ± 0.02 | 1.68 ± 0.03 | 2.57 ± 0.11 | 12.50 µM | – | – | –
5 | C=C(C)[C@@H]1CC[C@]2(COC(=O)NCCN3CCNCC3)CC[C@]3(C)[C@H](CC[C@@H]4[C@@]5(C)CC[C@H](O)C(C)(C)[C@@H]5CC[C@]43C)[C@@H]12 [Compound 6k] | 27 ± 1.34 µM | 9.4 µM | 1.03 ± 0.17 | 1.35 ± 0.08 | 1.48 ± 0.07 | 2.24 ± 0.24 | – | – | – | 1.56 µM | more than 55% | more than 55% | IC50 [2]: 9.44 ± 0.08 µM
6 | C=C(C)[C@@H]1CC[C@]2(COC(=O)NCc3ccc(N4CCN(C)CC4)cc3)CC[C@]3(C)[C@H](CC[C@@H]4[C@@]5(C)CC[C@H](O)C(C)(C)[C@@H]5CC[C@]43C)[C@@H]12 [Compound 6l] | 17.4 ± 0.59 µM | 8 ± 1.98 µM | – | – | 1.08 ± 0.05 | 1.30 ± 0.04 | 1.55 ± 0.03 | – | – | 6.25 µM | more than 55% | more than 55% | –
7 | C=C(C)[C@@H]1CC[C@]2(COC(=O)N3CCc4cc(OC)c(OC)cc4C3)CC[C@]3(C)[C@H](CC[C@@H]4[C@@]5(C)CC[C@H](O)C(C)(C)[C@@H]5CC[C@]43C)[C@@H]12 [Compound 6m] | > 50 µM | > 50 µM | – | 1.03 ± 0.12 | 1.17 ± 0.03 | 1.27 ± 0.09 | 1.32 ± 0.14 | 1.52 ± 0.09 | 2.06 ± 0.15 | 3.12 µM | – | – | –
8 | C=C(C)[C@@H]1CC[C@]2(C)CC[C@]3(C)[C@H](CC[C@@H]4[C@@]5(C)CC[C@H](O)C(C)(C)[C@@H]5CC[C@]43C)[C@@H]12 [lupeol] | – | – | – | – | – | – | – | – | – | – | – | – | effective concentration, P-gp inhibition [11]: 100 µM
9 | CC1(C)CC[C@]2(C(=O)O)CC[C@]3(C)C(=CC[C@@H]4[C@@]5(C)CC[C@H](O)C(C)(C)[C@@H]5CC[C@]43C)[C@@H]2C1 [oleanolic acid] | – | – | – | – | – | – | – | – | – | – | – | – | effective concentration, P-gp inhibition [11]: 2 µM
